Columns and labels:
SIK3 = SIK3 (Homo sapiens (Human), UniProt Q9Y2K2); details: read-out: SIK3 IC50
[1] = microsomes
[2] = microsomes; remark: listed apart in the source
in vitro [3] = details: human, microsomes
in vitro [4] = details: mouse, microsomes
[5] = Human plasma-protein binding; details: Table 5A
[6] = Murine plasma protein binding; details: Table 5A

Cc1nc(Nc2ncc(C(=O)Nc3c(C)nn(C)c3C)s2)cc(N2CCN(CCO)CC2)n1 [Compound C8, 2-((6-(4-(2-hydroxyethyl)piperazin-1-yl)-2-methylpyrimidin-4-yl)amino)-N-(1,3,5-trimethyl-1H-pyrazol-4-yl)thiazole-5-carboxamide]
IC50 (SIK3): 9.73 µM | Human liver microsomal stability, Intrinsic clearance [1]: < 14 µL/min/mg | Mouse liver microsomal stability, Intrinsic clearance (L/min/mg) [2]: < 14 µL/min/mg | Kinetic solubility: 189 µM | half-life (in vitro [3]): > 1.67 h | half-life (in vitro [4]): > 1.67 h | Human plasma-protein binding, Percentage unbound (%) [5]: 5% | Murine plasma protein binding, Percentage unbound (%) [6]: 62%

— patent US20230348453A1, “HALOGENATED-HETEROARYL AND OTHER HETEROCYCLIC KINASE INHIBITORS, AND USES THEREOF” (iOmx Therapeutics AG, priority 2020, published 2023)
